A melting point compilation (Tetko et al.; mined from patent text by program, amines drawn as free bases though some values may be those of a salt)

SMILES	melting point
Nc1cc(O)ccc1/C=C/c1ccc(O)cc1	229 to 232 °C
O=C1C[C@H]2CCN(Cc3ccccc3)C[C@H]2c2ccc(F)cc21 (relative stereo)	> 220 °C
CS(=O)(=O)N(Cc1ccccc1)c1ccc(C2CO2)cc1 (stereo not drawn)	89 to 92 °C
CC(C)C1(C)CC(=O)CC(C)(C)N1OC(C)(C)C#N (stereo not drawn)	32 to 44 °C
CC12CCCC=C1CCC1C2CCC2(C)C(OC3CCCCO3)CCC12 (stereo not drawn)	92 to 96 °C
COc1ccc(C(=O)CCCCCBr)cc1OC	38 to 40 °C
OC(CNCc1ccccc1)C(c1ccccc1)c1ccccc1 (stereo not drawn)	123 to 124 °C
CC1(C)CC(N(C=O)C2CCCCC2)CC(C)(C)N1	105 °C
CC(C)(C)c1ncc(Br)cn1	50 to 51 °C
O/N=C(\CCN1CCN(c2ccccn2)CC1)c1ccc(Cl)cc1	188 to 190 °C
NC(=O)c1c(N)cccc1OCc1ccccc1	158 to 160 °C
Clc1ccc2c(c1)C(c1ccccc1)NC1=NCCN12 (stereo not drawn)	210 to 213 °C
CCCC(=N)Nc1ccccc1N1CCOCC1	131 °C
CO[C@@H](C)[C@](C)(OC)c1cc(F)cc(OCc2ccc3ccccc3c2)c1 (racemic)	58 to 59 °C
Oc1cnc(C(F)(F)F)nc1	179 to 181 °C
O=C(O)c1ccc(O)c(I)c1	163 °C
Oc1ccc2c(-c3ccccc3F)noc2c1I	212 to 214 °C
O=[N+]([O-])c1ccc2[nH]cc(C3=CCNCC3F)c2c1 (stereo not drawn)	205 to 207 °C
CC(C)(C)NSc1cnccn1	44 to 52 °C
CCOC(=O)Cc1csc(-c2ncccc2O)n1	85.5 to 86.5 °C

SMILES	melting point
O=C(NCCN1CCOCC1)c1ccc(-c2ccc3nnn(Cc4ccc5ncccc5c4)c3n2)cc1	146 to 149 °C
Cc1ccc(Nc2ccccc2[N+](=O)[O-])c(C#N)c1	135 to 139 °C
N#Cc1c(N2CCc3ccccc3CC2)nc(NCCOc2ccccc2)[nH]c1=O	> 200 °C
CCn1c(=O)c2c(nc(/C=C/c3cc4c(c(OC(C)=O)c3)OCO4)n2C)n(CC)c1=O	> 270 °C
Cc1[nH]c(C=O)c2c1-c1ccc(Cl)cc1C(c1ccccc1Cl)=NC2	274 to 276 °C
CCCCc1ncc(/C=C(\Cc2cccs2)C(=O)O)n1Cc1cccc(OC)c1[N+](=O)[O-]	213 to 215 °C
COc1cc2cc(C(=O)N3CC(CCl)c4c3cc(N)c3ccccc43)[nH]c2cc1OCCN(C)C (stereo not drawn)	130 to 133 °C
COC(=O)c1c2snnc2nn1C	115 to 121 °C
COc1cc2c(cc1OC)-c1c([N+](=O)[O-])sc(=N)n1CC2	220 to 221 °C
c1ccc(-c2nnc(Nc3ccc4c(c3)ncn4-c3ccccc3)c3ccccc23)cc1	227 to 229 °C
Cc1cccc(C(=O)NO)c1N(C)S(=O)(=O)c1ccc(OCCCCNC(=O)c2cc3ccccc3o2)cc1	131 to 134 °C
CC(=O)OC1COC(NNC(=O)C(F)(F)F)C(OC(C)=O)C1OC(C)=O (stereo not drawn)	106 °C
O=C(c1ccc(F)cc1)N1CCCC(F)(c2nc(-c3ccc[nH]3)no2)C1 (stereo not drawn)	115 to 118 °C
CCCCN=C(O)c1c(Sc2ccccc2)c(Sc2ccccc2)c(Sc2ccccc2)c(Sc2ccccc2)c1C(=O)O	159 to 160 °C
CCCCN(CCCC)c1ccc(C=Cc2ccc(C=CC3=C(C#N)C(=C(C#N)C#N)OC3(C)C(F)(F)F)s2)c(OCc2ccccc2)c1 (stereo not drawn)	184 to 185 °C
CN(CCO)c1ccc(C=Cc2ccc(S(C)(=O)=O)cc2)cc1	201 to 204 °C
O=C(O)c1cn(-c2cccc(OC(F)(F)F)c2)cn1	173 to 175 °C
O=c1c(-c2ccccc2)c(Cn2cnc3ccccc32)oc2ccc(Br)cc12	192 to 197 °C
O=[N+]([O-])c1cc(-c2nnn[nH]2)ccc1OCc1ccccc1	178 to 180 °C
CN1C(=O)C(NC(=O)CCCCc2ccccc2)N=C(N2CCCCCC2)c2ccccc21 (stereo not drawn)	140 to 141 °C

SMILES	melting point
Cc1nc(-c2ccc(C(F)(F)F)cc2)oc1COc1ccc(Cc2nn[nH]n2)cc1	208 °C
CC1=Nc2ccccc2CC(c2ccsc2)N1C (stereo not drawn)	113 to 117 °C
c1ccc(C(CC2CC3CCN2CC3)c2ccccc2)cc1 (stereo not drawn)	87.5 to 89 °C
CC12CCC3c4cc([N+](=O)[O-])c(OCc5ccccc5)cc4CCC3C1CCC2=O (stereo not drawn)	234 to 235 °C
Cc1nnc(-c2ccnc(Nc3cccc(C(F)(F)F)c3)c2)o1	217 to 218 °C
COC(=O)c1cccc(-n2cccc2)n1	61 °C
CC(Cc1c[nH]c2ccccc12)NC(=O)NCC1CCC(c2ccccc2)(N(C)C)CC1 (stereo not drawn)	140 to 146 °C
NC(=O)c1ccc(Cn2ccc(OCc3ccc(F)cc3F)c(Br)c2=O)cc1	235 to 238 °C
COc1ccc(C(C)(C)OC)cc1CN[C@H]1C2CCN(CC2)[C@H]1C(c1ccccc1)c1ccccc1	127 °C
O=C(O)CCCCN1CCC(Cc2ccccc2)CC1	148 to 151 °C
CCNC(=O)N(Cc1ccc(Cl)cc1)C1CC2CCC1C2 (stereo not drawn)	132 to 133 °C
Cc1ccc(CCOc2ncnc3c(F)cccc23)cc1	72 to 74 °C
O=C(CC1COC1)N[C@H]1CC[C@H](CCN2CCC(c3cccc4c3CCO4)CC2)CC1	197 °C
Cc1cccc2c1SC(C(F)(F)F)C(C(=O)O)=C2 (stereo not drawn)	224 to 225 °C
CO/C=C(/C(=O)OC)c1ccccc1/C=C(\Cl)OC(=O)C1=C(c2ccccc2)S(=O)(=O)C(c2ccccc2)C1=O (stereo not drawn)	68 to 72 °C
CCN(CC)c1ccc2nc3c4ccccc4c(=Nc4cccnc4)cc-3oc2c1	198 to 199 °C
COc1ccc(-c2c(-c3ccccc3)c(Sc3ccc4c(c3)CC[C@H]3N(C)C(=O)CC[C@]43C)nc3ccccc23)cc1	239 to 242 °C
N#CCc1c(Cl)cccc1Br	82 to 84 °C

The next lines start with the values.

melting point	SMILES
109 to 111 °C	COc1ccc(C2=NN(CCCCBr)C(=O)[C@H]3CC=CC[C@@H]23)cc1Cl (relative stereo)
142 to 144 °C	Cc1ccc(Cl)cc1N1C(=O)CN(C(C)C)C1=S
216 to 217 °C	COC(=O)c1cc(C(=O)NCCF)c2cc(Cc3ccc(F)cc3)cnc2c1O
153 to 154 °C	Cc1c(CCCO)c2c(c(C)c1NC(=O)NCCO)C(c1ccc(C(C)C)cc1)CO2 (stereo not drawn)
78 to 80 °C	COc1cc2nc(CN(C)C)nc(Cl)c2cc1OC
172 °C	COC1=C(N=O)C(=O)NC1=Cc1ccccc1
137 to 138 °C	CN1C(=O)CCC2=C1CCc1c(F)cccc12
193 to 194 °C	COc1ccc(C(=O)Nc2ccc(F)cc2)cc1Nc1ccc(F)cc1
210 °C	CC(SC1COC(c2ccc(C(=O)Nc3ccc(C(F)(F)F)cc3)cc2)OC1)C(O)(Cn1cncn1)c1ccc(F)cc1F (stereo not drawn)
109 to 110 °C	CC(=O)Nc1ccc(C(C)(C)C)cc1[N+](=O)[O-]
61 to 63 °C	COCCNS(=O)(=O)CC1CC(C)(C)Oc2ccc(OCCO)cc21 (stereo not drawn)
118 to 122 °C	O=C1C(=O)c2ccccc2C2=C1SCC1(CCN(Cc3ccccc3F)CC1)O2
212 to 214 °C	CCOC(=O)c1c(Nc2ccncc2)c2ccc(Cl)cc2n1CC(=O)N(CC)CC
142 to 144 °C	Cc1noc(NS(=O)(=O)c2ccc(F)cc2)c1Br
185 to 186 °C	CCOc1ccc(/C=C/c2nc3c(c(=O)n(CC)c(=O)n3CC)n2C)cc1
141 to 145 °C	CCCCCCCCCCCCc1nnn(C(C(=O)Nc2c(OC)cc(OC)cc2OC)c2ccccc2)n1 (stereo not drawn)
95 to 97 °C	Cc1cc(N2CCC[C@H]2COc2ccc(CC3SC(=O)NC3=O)cc2)nc2ccccc12 (stereo partly drawn)
51 to 53 °C	Cc1csc2ccc(CO)cc12
117 to 118 °C	Cn1nc(N)nc1NCCCOc1cccc(C2OCCO2)c1
133 °C	CN1C(=S)N(c2ccc(Cl)c(Cl)c2)C(=N)C1(C)C
185 to 187 °C	CCc1nc(S(=O)(=O)Nc2c(Cl)cccc2Cl)nn1-c1ccccc1
216 to 217 °C	CC(C)(O)C1COCc2nc3c(N)nc4ccccc4c3n21 (stereo not drawn)
87 to 88 °C	CCC1(C)CC(=O)C(C(=O)Nc2ccc(Cl)c(C(F)(F)F)c2)C(=O)C1 (stereo not drawn)

melting point	SMILES
> 250 °C	N[C@@]1(C(=O)O)C[C@H](NC(=O)Nc2c(Cl)cccc2Cl)[C@H]2[C@H](C(=O)O)[C@H]21 (relative stereo)
203 to 206 °C	CCCc1nc2c(N)nc3ccccc3c2n1CC(C)(C)OCCS(C)(=O)=O
320 °C	CCOC(=O)c1cn(C)c2nc3c(F)c(F)c(F)cc3cc2c1=O
138 °C	CC(SCc1cc2cc(Cl)ccc2n1S(=O)(=O)c1ccccc1)C(=O)O (stereo not drawn)
295 to 296 °C	Cc1cc(=O)c2[nH]c3ccccc3c2s1
199 to 202 °C	COC(=O)CSc1nc(N2CCN(c3ccccn3)CC2)ncc1[N+](=O)[O-]
165 to 166 °C	CCCCCC1=C(/C=C/C(=O)O)Cc2cc(OC)ccc21
139 to 142 °C	COC(=O)c1ccc(OCC2CN(c3ccc(N)cc3)C(=O)O2)cc1 (stereo not drawn)
231 to 233 °C	CCn1cc(C(C)=O)c(=O)c2ccc(-c3ccncc3)cc21
138 to 140 °C	CCN(C(=O)N(C)C)c1ccccc1-c1ccc2nnc(C)n2n1
166 to 171 °C	CCc1c2cccccc-2[nH]c1=O
> 250 °C	COC(=O)c1ccc(CCCc2cnc3nc(N)nc(O)c3c2)cc1
230 °C	CC(C)N1C(=O)C(=O)NC1=NC(=N)Nc1ccc(Cl)c(Cl)c1
121 to 124 °C	COc1cc(C=Cc2ccc(Cl)cc2)ccc1O
89 to 91 °C	CCOC(=O)Nc1cc(OC(C)C)c(Cl)cc1F
232 to 233 °C	Cc1cc(CCC(=O)O)nc(-c2nc(=O)c3ccc(Cl)cc3s2)c1
180 to 200 °C	CCCCN(C)Cc1[nH]c2ccccc2c1CC1C(=O)N(c2ccccc2)N=C1C (stereo not drawn)
191 to 192 °C	CCNC(=O)CSc1nc(Cl)cc(Nc2cccc(C)c2C)n1
243 to 244 °C	CNC(=O)c1ccccc1Nc1nc(Nc2cccc3c2N(C)CCN(C)C3=O)ncc1Cl
133 to 135 °C	CCOc1ccc(C(=O)OC)cc1C(=N)N
279 °C	Cc1cc(C#N)cc(C(=O)Nc2ccc(C#N)cn2)n1
78 to 80 °C	CCCCc1nc(CO)c(Cl)n1Cc1ccccc1
